# Patent US20260199482A1, “BILE ACID-METRONIDAZOLE CONJUGATE AND USE THEREOF” (SOUTH CHINA UNIVERSITY OF TECHNOLOGY, priority 2022, published 2026)
# What was measured:
# [1] = test system: Bacteroides fragilis ATCC 25285; assay: MIC determination using broth microdilution method, anaerobic bacteria; format: cell-based; settings: ATCC25285; Bacteroides fragilis ATCC 25285; broth microdilution, anaerobic, 37° C., 48 h; read-out: MIC
# Experimental: (§1) The culture process of the strain was operated in the anaerobic glove box. After the operation was completed, the strain was well sealed with an anaerobic bag or an anaerobic box, taken out and then cultured in the constant-temperature incubator.
# [2] = test system: Clostridioides difficile ATCC 43255; assay: as above; format: cell-based; settings: ATCC43255; Clostridioides difficile ATCC 43255; broth microdilution, anaerobic, 37° C., 48 h
# Experimental: 0.10 g of sterile cycloserine and 3.20 mg of sterile cefoxitin (filtered by a filter membrane and sterilized) were added to every 200 mL, mixed well, and poured into a sterile petri dish for later use.
# S3, culture of Clostridioides difficile strain: 1) the strain stored at −80° C. was resuscitated in an anaerobic glove box with a cycloserine-cefoxitin-fructose agar medium plate, and statically cultured at 37° C. in a constant-temperature incubator for 48 h; • 2) single colonies were picked, and statically cultured in the brain heart infusion broth medium overnight at 37° C. in the constant-temperature incubator; and • 3) the bacterial solution that was statically cultured overnight was transferred into the anaerobic glove box with the brain heart infusion broth medium at a ratio of 1:100, and cultured for 3-4 h until the OD600 was between 0.6 and 0.8; and during this process, 5 g/L of yeast extract solution was added to increase a strain concentration.
# as §1
# [3] = test system: Porphyromonas gingivalis ATCC 33277; assay: as above; format: cell-based; settings: ATCC33277; Porphyromonas gingivalis ATCC 33277; broth microdilution, anaerobic, 37° C., 48 h; read-out: MIC
# Experimental: S5, Culture of Porphyromonas gingivalis strain: • the strain stored at −80° C. was resuscitated in the anaerobic glove box with a Colombian blood agar plate, and statically cultured at 37° C. in the constant-temperature incubator for 5-7 days.
# as §1
# [4] = test system: H. pylori ATCC 26695; settings: H. pylori ATCC 26695(S); footnote b; cited from earlier work
# [5] = test system: Clostridioides difficile infection (spores, 027 Type); assay: Clostridioides difficile infection (CDI) mouse model; format: in vivo, C57BL/6 mice; settings: for number of surviving mice: 10 animals per group
# Description: • 1) Experimental animals: C57BL/6, 4-6 weeks old, female.
# In order to evaluate the efficacy of the compounds of the present application on Clostridioides difficile infection, an animal model of Clostridioides difficile infection was established, as shown in FIG. 1. […] On Day 0, the mice were administrated with 10^5 CFU/mL of spores by gavage; and on Days 1 and 2, the mice were administrated with 10^6 CFU/mL of spores by gavage. Starting from Day 3, the mice were given 7 days of drug treatment, and all mice were euthanized at the end of the experiment, except for the death of mice during the treatment.
# Two of the conjugates, SCUT1-2 and SCUT1-6, with the optional in-vitro inhibitory activities were selected. […] The therapeutic effect of the conjugate of the present application in the treatment of Clostridioides difficile infection was evaluated.
# [6] = test system: H. pylori ATCC 43504; settings: H. pylori ATCC 43504(R); footnote a; cited from earlier work
# [7] = test system: H. pylori Sydney strain SS1; assay: MIC determination using broth microdilution method, Helicobacter pylori; format: cell-based; settings: H. pylori Sydney strain SS1, read-out: MIC
# Experimental: (§2) • 1) A frozen solution stored at −80° C. was taken out, and thawed at room temperature; 100 μL of bacterial solution was taken with a pipette, coated onto a Columbia blood agar plate (finished-product medium), put invertedly in a […] culture box, placed in a micro-aerobic gas production bag to achieve a micro-aerobic environment, and cultured at 37° C. for 2-3 days. • 2) A sterile inoculation ring was used to pick Helicobacter pylori single colonies (transparent water droplets) grown on the Colombian blood agar medium and inoculated in the above liquid medium; and cultured at 37° C. in a micro-aerobic environment for 3 days. • 3) A required concentration (absorbance) for the experiment was reached after culture, and the bacterial solution was taken for subsequent experiments.
# (§3) The drug concentration at which bacteria ceased to grow or grew at the most significant reduction level was referred to as the MIC value.
# [8] = test system: H. pylori NCTC 11637; assay: as above; format: cell-based; settings: Helicobacter pylori, NCTC11637; H. pylori NCTC 11637(R), metronidazole-resistant strain; read-out: MIC
# Experimental: as §2, §3
# [9] = test system: H. pylori ATCC 43504; assay: as above; format: cell-based; settings: Helicobacter pylori, ATCC43504; H. pylori ATCC 43504(R), metronidazole-resistant strain; read-out: MIC
# Experimental: as §2, §3
# [10] = test system: H. pylori ATCC 26695; assay: as above; format: cell-based; settings: ATCC26695, H. pylori ATCC 26695(S), metronidazole-susceptible strain, read-out: MIC
# Experimental: as §2, §3
# [11] = Day 3 (before the administration), 50 mg/kg groups
smiles,measurement,setting,value
Cc1ncc([N+](=O)[O-])n1CCO [Metronidazole],MIC,[1],0.25 to 2 µg/mL
same,MIC,[2],1 to 2 µg/mL
same,MIC,[3],2 µg/mL
same,MIC reported in related literatures,[4],(1-8)^b μg/mL
same,number of mice with diarrhea,[5]; [11],9 number of mice
same,number of surviving mice,[5]; [11],10 number of mice
same,number of mice with diarrhea,"[5]; Day 4, 50 mg/kg",8 number of mice
same,number of surviving mice,"[5]; Day 4, 50 mg/kg",9 number of mice
same,number of mice with diarrhea,"[5]; Day 5, 50 mg/kg",5 number of mice
same,number of surviving mice,"[5]; Day 5, 50 mg/kg",8 number of mice
same,number of mice with diarrhea,"[5]; Day 6, 50 mg/kg",3 number of mice
same,number of surviving mice,"[5]; Day 6, 50 mg/kg",8 number of mice
same,number of mice with diarrhea,"[5]; Day 7, 50 mg/kg",3 number of mice
same,number of surviving mice,"[5]; Day 7, 50 mg/kg",8 number of mice
same,number of mice with diarrhea,"[5]; Day 8, 50 mg/kg",3 number of mice
same,number of surviving mice,"[5]; Day 8, 50 mg/kg",8 number of mice
same,number of mice with diarrhea,"[5]; Day 9, 50 mg/kg",3 number of mice
same,number of surviving mice,"[5]; Day 9, 50 mg/kg",8 number of mice
same,probability of survival,"[5]; after 7 days of drug treatment, 50 mg/kg, Model group 44.44%",80%
same,MIC reported in related literatures,[6],(64-256)^a μg/mL
same,MIC,[7],8 µg/mL
same,MIC,[8],> 128 µg/mL
same,MIC,[9],> 128 µg/mL
same,MIC,[10],4 µg/mL
